Legend:
[1] = system: hematopoietic stem cells (HSCs); experiment: Multi-lineage toxicity assay (MLTA), HSCs: concentration-response and QSP model fit; format: cell-based, human; design: EmaxAP,HSC / EmaxT,HSC / Emax_drug_HSC: unitless, 0–2; ≤1 anti-proliferative, >1 adds cell killing
Summary of the method: (§1)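 Freeze-thawed primary human bone marrow CD34+ cells were cultured 6 days in SFEM II with a cytokine cocktail, drug added on day 0. Subsets were counted by 17-parameter flow cytometry with TruCount beads and normalized to vehicle wells. An Emax QSP model (Emax 0–2, L1 regularization) was fitted to these counts.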

[2] = system: multi-potent progenitors (MPPs); experiment: MLTA, MPPs: concentration-response and QSP model fit; format: cell-based, human; settings: Homo sapiens, 144 h
Summary of the method: as §1

[3] = system: granulocyte progenitor (Gran-lin prog); experiment: MLTA, GranP: concentration-response and QSP model fit; format: cell-based, human; settings: Homo sapiens, 144 h
Summary of the method: (§2)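 Six-day flow cytometry counts, bead-normalized and expressed relative to the mean of six vehicle wells, underlie each value. Cells were primary human bone marrow CD34+ cells cultured in SFEM II with cytokines promoting multi-lineage differentiation and self-renewal.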

[4] = system: neutrophils (neutrophil-lin); experiment: MLTA, Neut: concentration-response and QSP model fit; format: cell-based, human; settings: Homo sapiens, Neutrophil, 144 h
Summary of the method: as §1

[5] = system: early erythroid cells (Eryth I); experiment: MLTA, ErythI: concentration-response and QSP model fit; format: cell-based, human; settings: Homo sapiens, 144 h
Summary of the method: as §2

[6] = system: late erythroid cells (Eryth II); experiment: MLTA, ErythII: concentration-response and QSP model fit; format: cell-based, human; settings: Homo sapiens, 144 h
Summary of the method: as §1

[7] = system: total viable cells (totalViableCells); experiment: MLTA, total live cells concentration-response; format: cell-based; settings: Homo sapiens, 144 h, 6 days, normalized to vehicle control, read-out: total_live normalized cell count
Method: A custom optimized cytokine cocktail was developed using commercially available cytokines (Peprotech, New Jersey) to facilitate simultaneous multi-lineage differentiation and self-renewal of freeze-thawed primary human bone marrow-derived CD34+ cells in SFEM II media (cells and media from StemCell Technologies, Vancouver). Cultures were carried out in ultra-low attachment 96-well plates (Corning, New York) with test article added on day 0 and cultured at 37°C, 85% relative humidity, and 5% CO2 for six days before interrogating drug impact via 17-parameter flow cytometry.
The flow cytometry panel used to define hematopoietic subsets was composed of CD34-PECy7, CD90-PECY5, CD38-AF488, CD371-PE, CD45Ra-BV421, CD14-BV605, CD42b-AF647, CD10-PEDazzle594, CD235a-PerCPCy5.5 (BioLegend, California), CD15-BUV395, CD41a-APCH7, CD71-BV786 (BD Biosciences, California), and DAPI for dead cell exclusion (ThermoFisher, California). In short, Day 6 cells were harvested, FcR-blocked (FcR binding inhibitor, ThermoFisher), surface-stained, then analyzed in a buffer containing TruCount Control Beads using a BD LSR Fortessa SORP fitted with a high-throughput sampler (BD Biosciences, California). Data was analyzed in Diva 6.0.2 and exported to CSV where after all cell data was transformed to cell per mL then normalized on a per-donor basis to untreated control wells to determine drug impact.
Donor material was collected and cultured as described above. The number of replicate donor samples per drug ranged from 2–7 and varied per drug (S1 Table). Drug treatment was added at time 0 and cells were maintained in culture for 6 days. Concentrations tested for each drug compound are contained in S1 Table. Concentrations were selected to span a range that is clinically useful. Following treatment, cell populations were measured using flow cytometry. We extracted cell counts from flow cytometry data, normalized to bead counts, and corrected for well volume.
Each well was normalized to the average of six vehicle control wells. For drugs that were tested across multiple runs of the assay, vehicle-normalized donor data were pooled, and we used the average of these pooled data for further modeling. Normalized data used as model inputs are included in S1 Table.

SMILES: CCc1cnn2c(NCc3ccc[n+]([O-])c3)cc(N3CCCC[C@H]3CCO)nc12 [dinaciclib]
- activity at 0.0002 µM ([1]; Homo sapiens, Hematopoietic stem cell, 144 h, dose 0.2 nM, 6 days, normalized to vehicle control, read-out: HSCs normalized cell count): 89.5%
- activity at 0.001 µM ([1]; Homo sapiens, Hematopoietic stem cell, 144 h, dose 1 nM, 6 days, normalized to vehicle control, read-out: HSCs normalized cell count): 106%
- activity at 0.005 µM ([1]; Homo sapiens, Hematopoietic stem cell, 144 h, dose 5 nM, 6 days, normalized to vehicle control, read-out: HSCs normalized cell count): 115%
- activity at 0.025 µM ([1]; Homo sapiens, Hematopoietic stem cell, 144 h, dose 25 nM, 6 days, normalized to vehicle control, read-out: HSCs normalized cell count): 61.2%
- activity at 0.1 µM ([1]; Homo sapiens, Hematopoietic stem cell, 144 h, dose 100 nM, 6 days, normalized to vehicle control, read-out: HSCs normalized cell count): 1.89%
- activity at 0.5 µM ([1]; Homo sapiens, Hematopoietic stem cell, 144 h, dose 500 nM, 6 days, normalized to vehicle control, read-out: HSCs normalized cell count): 5.17%
- activity at 2.5 µM ([1]; Homo sapiens, Hematopoietic stem cell, 144 h, dose 2500 nM, 6 days, normalized to vehicle control, read-out: HSCs normalized cell count): 1.3%
- Emax ([1]; Homo sapiens, Hematopoietic stem cell, 144 h, parameter from QSP model fitting, read-out: Emax_drug_HSC): 103%
- EmaxAP,HSC ([1]; anti-proliferation component, min(1, EmaxT)): 1.000
- activity at 0.0002 µM ([2]; dose 0.2 nM, 6 days, normalized to vehicle control, read-out: MPPs normalized cell count): 94.1%
- activity at 0.001 µM ([2]; dose 1 nM, 6 days, normalized to vehicle control, read-out: MPPs normalized cell count): 104%
- activity at 0.005 µM ([2]; dose 5 nM, 6 days, normalized to vehicle control, read-out: MPPs normalized cell count): 96.7%
- activity at 0.025 µM ([2]; dose 25 nM, 6 days, normalized to vehicle control, read-out: MPPs normalized cell count): 53.4%
- activity at 0.1 µM ([2]; dose 100 nM, 6 days, normalized to vehicle control, read-out: MPPs normalized cell count): 2.71%
- activity at 0.5 µM ([2]; dose 500 nM, 6 days, normalized to vehicle control, read-out: MPPs normalized cell count): 2.67%
- activity at 2.5 µM ([2]; dose 2500 nM, 6 days, normalized to vehicle control, read-out: MPPs normalized cell count): 0.896%
- Emax ([2]; parameter from QSP model fitting, read-out: Emax_drug_MPP): 69.4%
- activity at 0.0002 µM ([3]; dose 0.2 nM, 6 days, normalized to vehicle control, read-out: GranPs normalized cell count): 97.3%
- activity at 0.001 µM ([3]; dose 1 nM, 6 days, normalized to vehicle control, read-out: GranPs normalized cell count): 99.7%
- activity at 0.005 µM ([3]; dose 5 nM, 6 days, normalized to vehicle control, read-out: GranPs normalized cell count): 93.8%
- activity at 0.025 µM ([3]; dose 25 nM, 6 days, normalized to vehicle control, read-out: GranPs normalized cell count): 31.7%
- activity at 0.1 µM ([3]; dose 100 nM, 6 days, normalized to vehicle control, read-out: GranPs normalized cell count): 0.0459%
- activity at 0.5 µM ([3]; dose 500 nM, 6 days, normalized to vehicle control, read-out: GranPs normalized cell count): 0.033%
- activity at 2.5 µM ([3]; dose 2500 nM, 6 days, normalized to vehicle control, read-out: GranPs normalized cell count): 0.0254%
- Emax ([3]; parameter from QSP model fitting, read-out: Emax_drug_GranP): 0.0135%
- activity at 0.0002 µM ([4]; dose 0.2 nM, 6 days, normalized to vehicle control, read-out: Neut normalized cell count): 83.8%
- activity at 0.001 µM ([4]; dose 1 nM, 6 days, normalized to vehicle control, read-out: Neut normalized cell count): 83.1%
- activity at 0.005 µM ([4]; dose 5 nM, 6 days, normalized to vehicle control, read-out: Neut normalized cell count): 24.9%
- activity at 0.025 µM ([4]; dose 25 nM, 6 days, normalized to vehicle control, read-out: Neut normalized cell count): 0.684%
- activity at 0.1 µM ([4]; dose 100 nM, 6 days, normalized to vehicle control, read-out: Neut normalized cell count): 0.0259%
- activity at 0.5 µM ([4]; dose 500 nM, 6 days, normalized to vehicle control, read-out: Neut normalized cell count): 0.0166%
- activity at 2.5 µM ([4]; dose 2500 nM, 6 days, normalized to vehicle control, read-out: Neut normalized cell count): 0.0149%
- Emax ([4]; parameter from QSP model fitting, read-out: Emax_drug_Neut): 28.1%
- activity at 0.0002 µM ([5]; dose 0.2 nM, 6 days, normalized to vehicle control, read-out: ErythI normalized cell count): 112%
- activity at 0.001 µM ([5]; dose 1 nM, 6 days, normalized to vehicle control, read-out: ErythI normalized cell count): 104%
- activity at 0.005 µM ([5]; dose 5 nM, 6 days, normalized to vehicle control, read-out: ErythI normalized cell count): 73.3%
- activity at 0.025 µM ([5]; dose 25 nM, 6 days, normalized to vehicle control, read-out: ErythI normalized cell count): 23.9%
- activity at 0.1 µM ([5]; dose 100 nM, 6 days, normalized to vehicle control, read-out: ErythI normalized cell count): 0.828%
- activity at 0.5 µM ([5]; dose 500 nM, 6 days, normalized to vehicle control, read-out: ErythI normalized cell count): 0.888%
- activity at 2.5 µM ([5]; dose 2500 nM, 6 days, normalized to vehicle control, read-out: ErythI normalized cell count): 0.845%
- Emax ([5]; parameter from QSP model fitting, read-out: Emax_drug_ErythroidI): 112%
- activity at 0.0002 µM ([6]; dose 0.2 nM, 6 days, normalized to vehicle control, read-out: ErythII normalized cell count): 90%
- activity at 0.001 µM ([6]; dose 1 nM, 6 days, normalized to vehicle control, read-out: ErythII normalized cell count): 108%
- activity at 0.005 µM ([6]; dose 5 nM, 6 days, normalized to vehicle control, read-out: ErythII normalized cell count): 98.7%
- activity at 0.025 µM ([6]; dose 25 nM, 6 days, normalized to vehicle control, read-out: ErythII normalized cell count): 23.2%
- activity at 0.1 µM ([6]; dose 100 nM, 6 days, normalized to vehicle control, read-out: ErythII normalized cell count): 0.0437%
- activity at 0.5 µM ([6]; dose 500 nM, 6 days, normalized to vehicle control, read-out: ErythII normalized cell count): 0.0109%
- activity at 2.5 µM ([6]; dose 2500 nM, 6 days, normalized to vehicle control, read-out: ErythII normalized cell count): 0.0201%
- Emax ([6]; parameter from QSP model fitting, read-out: Emax_drug_ErythroidII): 7.1%
- viability at 0.0002 µM ([7]; dose 0.2 nM): 95.4%
- viability at 0.001 µM ([7]; dose 1 nM): 107%
- viability at 0.005 µM ([7]; dose 5 nM): 92.4%
- viability at 0.025 µM ([7]; dose 25 nM): 26.1%
- viability at 0.1 µM ([7]; dose 100 nM): 0.282%
- viability at 0.5 µM ([7]; dose 500 nM): 0.4%
- viability at 2.5 µM ([7]; dose 2500 nM): 0.255%
